Source: patent US20250145632A1, “Pyrimidine Heterocyclic Compound, Preparation Method Thereof and use Thereof in Medicine” (INSILICO MEDICINE IP LIMITED, priority 2021, published 2025)

Key:
CDK7/Cyclin H/MAT1 = CDK7/Cyclin H/MAT1 (Homo sapiens (Human), UniProt P50613); experiment: In-vitro inhibition of CDK7/Cyclin H/MAT1 kinase activity (Caliper mobility shift); type: biochemical; conditions: ATP 50 μM, 70 min, 27° C.; read-out: CDK7/CyclinH/MAT1 IC50 assay
Text: (§1) CDK2/Cyclin E1 was purchased from Biortus; batch No.: 20150228-BP469/477/691; CDK7/Cyclin H/MAT1 was purchased from Biortus; Batch No.: 20190326-BP487/492/479; CDK9/Cyclin T1 was purchased from Biortus; Batch No.: 20200727-BP488/792/691; CDK12/Cyclin K was purchased from Biortus; Batch No.: 20200526-BP1642/1648/691; MES was purchased from BiRoYee (Baoruyi); Batch No.: 67GR9637; BSA was purchased from Aladdin; Batch No.: H1601024; ATP was purchased from VWR; Batch No.: 97061-226; EDTA was purchased from Sinopharm Group; Batch No.: 20200521; and staurosporine was purchased from Selleckchem; Batch No.: S1421.
This experiment was used for determining the inhibition of the activities of CDK2, CDK7, CDK9 and CDK12 kinases by the compound. The kinase reaction carried out by the present invention was measured in a 384-well plate, the final measured volume was 16 μl, and the reaction temperature was 27° C. The concentrations of the kinases were determined by optimization experiment. […] The data was calculated with GraphPad Prism version 9.0, and an IC50 value was obtained by adjusting a nonlinear regression model using a dose reaction curve. […]

CDK2/Cyclin E1 = CDK2/Cyclin E1 (Homo sapiens (Human), UniProt P24941); experiment: In-vitro inhibition of CDK2/Cyclin E1 kinase activity (Caliper mobility shift); type: biochemical; conditions: for Ki: Ki calculated from IC50 under Km ATP condition (Cheng and Prusoff); for Selectivity (CDK2 Ki/CDK7 KD): Ki off-target / KD CDK7 (SPR)
Text: as §1
(§2) This experiment was used for determining the inhibition of the activities of CDK2, CDK7, CDK9 and CDK12 kinases by the compound. The kinase reaction carried out by the present invention was measured in a 384-well plate, the final measured volume was 16 μl, and the reaction temperature was 27° C. The concentrations of the kinases were determined by optimization experiment. The specific experimental process was as follows: • 1) preparation of kinase solutions: • kinase solution (CDK2/Cyclin E1): the kinase was diluted in a assay buffer solution ((20 mM MES pH 6.75, 0.01% Tween 20, 0.05 mg/mL BSA, 2 mM MgCl2) to obtain an enzyme solution with the corresponding 2.4× concentration; • kinase solution (CDK7/Cyclin H/MAT1): the kinase was diluted in the assay buffer solution (20 mM MES pH 6.75, 0.01% Tween 20, 0.05 mg/mL BSA, 6 mM MgCl2) to obtain an enzyme solution with the corresponding 2.4× concentration; • kinase solution (CDK9/Cyclin T1): the kinase was diluted in the assay buffer solution (20 mM MES pH 6.75, 0.01% Tween 20, 0.05 mg/mL BSA, 10 mM MgCl2) to obtain an enzyme solution with the corresponding 2.4× concentration; and • kinase solution (CDK12/Cyclin K): the kinase was diluted in a assay buffer solution (80 mM MES pH 6.5, 0.01% Tween 20, 0.05 mg/mL BSA, 10 mM MgCl2) to obtain an enzyme solution with the corresponding 2.4× concentration. • 2) Preparation of compound solutions: the compound was dissolved in dimethyl sulfoxide (DMSO) at a concentration of 10 mM, the compound was diluted to 10 concentration gradients of 25 nM to 500 μM with DMSO during use, diluted in ultrapure water by 8.3 times respectively to obtain compound solutions with 6× concentration. • 3) Preparation of a polypeptide substrate and ATP solution: the polypeptide substrate and ATP were diluted in the assay buffer solution to obtain a polypeptide substrate and ATP mixed solution with 2.4× concentration. • 4) Kinase reaction process: • 2 ul of the test compound solution, 5 ul of the polypeptide substrate and ATP mixed solution and 5 ul of an enzyme solution were mixed and incubated at 27° C. (CDK2 was incubated for 60 min, CDK7 was incubated for 70 min, CDK9 was incubated for 70 min, and CDK12 was incubated for 280 min), and then 4 ul of EDTA with a concentration of 150 mM was added into each sample to terminate the reaction. […] The data was calculated with GraphPad Prism version 9.0, and an IC50 value was obtained by adjusting a nonlinear regression model using a dose reaction curve. The calculation formula was Y=Bottom+(Top-Bottom)/(1+10^((LogIC50−X)*HillSlope)). X represents a log value (log of dose or concentration); Y represents an inhibition rate (% inhibition, increasing as x increases) which was increased along with the increase of X; Top represents maximum response; Bottom represents baseline response; and HillSlope represents a curve slope.

CDK9/Cyclin T1 = CDK9/Cyclin T1 (Homo sapiens (Human), UniProt P50750); experiment: In-vitro inhibition of CDK9/Cyclin T1 kinase activity (Caliper mobility shift); type: biochemical; conditions: for Ki: Ki calculated from IC50 under Km ATP condition (Cheng and Prusoff); for Selectivity (CDK9 Ki/CDK7 KD): Ki off-target / KD CDK7 (SPR)
Text: as §1, §2

CDK12/Cyclin K = CDK12/Cyclin K (Homo sapiens (Human), UniProt Q9NYV4); experiment: In-vitro inhibition of CDK12/Cyclin K kinase activity (Caliper mobility shift); type: biochemical; conditions: for Ki: Ki calculated from IC50 under Km ATP condition (Cheng and Prusoff); for Selectivity (CDK12 Ki/CDK7 KD): Ki off-target / KD CDK7 (SPR)
Text: as §1, §2

[1] = system: HCC70 human breast ductal cancer cells; experiment: HCC70 tumor cell proliferation inhibition (CellTiter-Glo); type: cell-based; conditions: 3 d culture
Procedure: HCC70 was purchased from ATCC; article No.: CRL-2315; RPMI1640 was purchased from Gibco; article No.: 11875-093; Pancreatin (including EDTA) was purchased from Gibco; article No.: 25200-072; FBS was purchased from Gibco; article No.: 10099-141C; CellTiter-Glo was purchased from Promega; article No.: G7573; DMSO was purchased from VWR AMRESCO; article No.: 0231-500ML; Staurosporine was purchased from Selleck; article No.: S1421; a cell counter was purchased from CHEMOMETEC; model: NC-200; and a microplate reader was purchased from PerkinElmer; Model: Envison.
(§3) HCC70 was human breast ductal cancer cells cultured in an RPMI-1640 culture medium containing 10% FBS. Cells in logarithmic phase were taken, and the cells were subjected to digesting, collecting and counting with pancreatin-EDTA, 2000 HCC70 cells/well were inoculated in a 384-well cell plate, and were cultured in 5% CO2 overnight. A 1000× compound stock solution with 3.16 times of gradient concentration was prepared with DMSO, and was diluted 100 times to 10× compound stock solution with a culture medium, and 10× compound stock solution was added into each cell culture well on the next day after cell inoculation, wherein the final concentration was 1×, and the DMSO content was 0.1%. The cell group was treated with DMSO as an experimental control (control), and the cell group was treated with 5 μM of Staurosporine as a blank control (blank).

[2] = system: OVCAR-3 human ovarian adenocarcinoma cells; experiment: OVCAR-3 tumor cell proliferation inhibition (CellTiter-Glo); type: cell-based; conditions: 3 d culture
Procedure: OVCAR-3 was purchased from ATCC; article No.: HTB-161; RPMI1640 was purchased from Gibco; article No.: 11875-093; Pancreatin (including EDTA) was purchased from Gibco; article No.: 25200-072; FBS was purchased from Gibco; Article No.: 10091-148; CellTiter-Glo was purchased from Promega; article No.: G7573; Bovine insulin was purchased from absin; article No.: abs9169; DMSO was purchased from VWR AMRESCO; article No.: 0231-500ML; Staurosporine was purchased from Selleck; article No.: S1421; a cell counter was purchased from CHEMOMETEC; model: NC-200; and a microplate reader was purchased from PerkinElmer; Model: Envison.
as §3, with “OVCAR-3” for “HCC70”, “ovarian adenocarcinoma” for “breast ductal cancer”, “20% FBS and 0.01 mg/mL of Bovine insulin.” for “10% FBS.”

[3] = In-vivo pharmacokinetic experiment in male beagles; set-up: species or system dog; conditions: beagle
Procedure: Experimental method and conditions: male beagles with weight of 8-11 kg were purchased from Jiangsu Marshall Biotechnology Co., Ltd. The to-be-tested compound was administered to 3 dogs at 0.2 mg/kg or 1.0 mg/kg (solvent: 2% DMSO+10% Kolliphor HS 15+88% (6.818% of hydroxypropyl-beta-cyclodextrin aqueous solution), 0.2 mg/mL or 1.0 mg/mL) by intravenous injection, and administered to 3 dogs at 2 mg/kg (solvent: 5% DMSO+95% (10% hydroxypropyl-beta-cyclodextrin salt aqueous solution, 0.4 mg/mL) by oral intragastric administration. Head vein blood sampling was carried out 5 min, 15 min, 30 min, 1 h, 2 h, 4 h, 8 h and 24 h after the administration, and 500 μL of each sample was collected. After collection, the samples were placed on ice, and plasma was centrifugally separated within 15 min for testing. The concentration of the medicine in the plasma was detected by liquid chromatography-tandem mass spectrometry (LC/MS/MS), and pharmacokinetic parameters were calculated with Phoenix WinNonlin software when the concentration was measured.

[4] = intravenous injection 0.2 mg/kg

CDK12/Cyclin K, sequence (Q9NYV4 whole entry): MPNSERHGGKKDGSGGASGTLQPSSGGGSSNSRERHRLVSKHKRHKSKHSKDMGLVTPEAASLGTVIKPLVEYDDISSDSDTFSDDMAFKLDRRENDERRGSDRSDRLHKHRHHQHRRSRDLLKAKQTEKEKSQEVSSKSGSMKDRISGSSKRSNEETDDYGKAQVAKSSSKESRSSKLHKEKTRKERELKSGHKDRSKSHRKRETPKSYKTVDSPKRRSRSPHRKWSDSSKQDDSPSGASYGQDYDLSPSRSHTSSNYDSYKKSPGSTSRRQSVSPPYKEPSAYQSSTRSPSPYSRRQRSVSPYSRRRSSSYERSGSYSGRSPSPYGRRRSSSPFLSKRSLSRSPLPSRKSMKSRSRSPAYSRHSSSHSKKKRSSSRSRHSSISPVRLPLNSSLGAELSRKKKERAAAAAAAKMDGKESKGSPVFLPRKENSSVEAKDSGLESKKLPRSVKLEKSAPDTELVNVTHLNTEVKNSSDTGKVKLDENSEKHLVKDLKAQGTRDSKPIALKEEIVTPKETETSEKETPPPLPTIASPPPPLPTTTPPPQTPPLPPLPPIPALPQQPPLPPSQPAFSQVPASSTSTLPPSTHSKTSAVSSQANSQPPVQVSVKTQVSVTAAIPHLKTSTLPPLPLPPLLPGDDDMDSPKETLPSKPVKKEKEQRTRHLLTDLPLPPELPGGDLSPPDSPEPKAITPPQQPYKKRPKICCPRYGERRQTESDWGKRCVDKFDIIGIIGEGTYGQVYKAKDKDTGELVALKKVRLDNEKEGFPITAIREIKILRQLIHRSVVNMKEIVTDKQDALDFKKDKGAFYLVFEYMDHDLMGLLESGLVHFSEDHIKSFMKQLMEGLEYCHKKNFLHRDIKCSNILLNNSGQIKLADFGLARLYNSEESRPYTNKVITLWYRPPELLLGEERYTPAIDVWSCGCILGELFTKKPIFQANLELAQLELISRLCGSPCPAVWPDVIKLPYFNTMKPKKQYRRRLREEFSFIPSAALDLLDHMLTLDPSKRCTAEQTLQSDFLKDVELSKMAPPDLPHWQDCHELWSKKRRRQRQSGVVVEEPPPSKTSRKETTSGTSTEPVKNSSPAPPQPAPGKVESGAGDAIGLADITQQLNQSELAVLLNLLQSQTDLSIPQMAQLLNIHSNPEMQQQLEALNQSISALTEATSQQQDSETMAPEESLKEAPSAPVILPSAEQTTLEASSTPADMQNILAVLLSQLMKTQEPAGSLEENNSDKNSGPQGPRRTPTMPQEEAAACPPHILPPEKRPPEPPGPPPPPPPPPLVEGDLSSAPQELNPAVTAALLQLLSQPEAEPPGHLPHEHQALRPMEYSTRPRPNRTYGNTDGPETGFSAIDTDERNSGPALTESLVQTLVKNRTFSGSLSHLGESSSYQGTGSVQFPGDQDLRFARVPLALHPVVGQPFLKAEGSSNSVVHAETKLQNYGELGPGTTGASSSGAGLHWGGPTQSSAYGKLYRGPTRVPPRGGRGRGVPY
CDK12/Cyclin K, sequence (O75909 whole entry partner): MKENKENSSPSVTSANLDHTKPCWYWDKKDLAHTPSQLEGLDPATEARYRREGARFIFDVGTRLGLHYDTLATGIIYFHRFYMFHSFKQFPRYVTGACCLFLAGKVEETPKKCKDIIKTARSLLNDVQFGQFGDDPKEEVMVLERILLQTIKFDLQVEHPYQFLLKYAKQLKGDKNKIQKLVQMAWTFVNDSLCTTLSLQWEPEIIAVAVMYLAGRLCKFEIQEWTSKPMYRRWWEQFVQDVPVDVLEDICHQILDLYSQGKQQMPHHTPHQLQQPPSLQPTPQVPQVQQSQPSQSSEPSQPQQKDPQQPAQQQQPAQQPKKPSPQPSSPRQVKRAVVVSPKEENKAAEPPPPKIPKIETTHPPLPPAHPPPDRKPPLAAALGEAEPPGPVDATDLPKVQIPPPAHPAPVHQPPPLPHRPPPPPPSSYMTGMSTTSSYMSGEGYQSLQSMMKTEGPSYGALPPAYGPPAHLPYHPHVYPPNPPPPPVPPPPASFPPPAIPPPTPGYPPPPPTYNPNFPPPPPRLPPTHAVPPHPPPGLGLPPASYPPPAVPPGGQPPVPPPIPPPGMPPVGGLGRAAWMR
CDK9/Cyclin T1, sequence (P50750 whole entry): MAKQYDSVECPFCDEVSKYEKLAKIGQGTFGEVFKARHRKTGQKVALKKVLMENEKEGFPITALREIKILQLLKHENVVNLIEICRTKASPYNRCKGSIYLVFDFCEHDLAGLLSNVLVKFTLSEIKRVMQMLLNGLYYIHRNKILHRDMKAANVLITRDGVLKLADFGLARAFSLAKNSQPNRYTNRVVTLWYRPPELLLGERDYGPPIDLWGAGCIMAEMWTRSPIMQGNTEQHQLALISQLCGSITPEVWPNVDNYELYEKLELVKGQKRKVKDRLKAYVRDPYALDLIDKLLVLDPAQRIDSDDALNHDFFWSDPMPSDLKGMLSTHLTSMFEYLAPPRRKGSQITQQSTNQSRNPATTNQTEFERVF
CDK9/Cyclin T1, sequence (O60563 whole entry partner): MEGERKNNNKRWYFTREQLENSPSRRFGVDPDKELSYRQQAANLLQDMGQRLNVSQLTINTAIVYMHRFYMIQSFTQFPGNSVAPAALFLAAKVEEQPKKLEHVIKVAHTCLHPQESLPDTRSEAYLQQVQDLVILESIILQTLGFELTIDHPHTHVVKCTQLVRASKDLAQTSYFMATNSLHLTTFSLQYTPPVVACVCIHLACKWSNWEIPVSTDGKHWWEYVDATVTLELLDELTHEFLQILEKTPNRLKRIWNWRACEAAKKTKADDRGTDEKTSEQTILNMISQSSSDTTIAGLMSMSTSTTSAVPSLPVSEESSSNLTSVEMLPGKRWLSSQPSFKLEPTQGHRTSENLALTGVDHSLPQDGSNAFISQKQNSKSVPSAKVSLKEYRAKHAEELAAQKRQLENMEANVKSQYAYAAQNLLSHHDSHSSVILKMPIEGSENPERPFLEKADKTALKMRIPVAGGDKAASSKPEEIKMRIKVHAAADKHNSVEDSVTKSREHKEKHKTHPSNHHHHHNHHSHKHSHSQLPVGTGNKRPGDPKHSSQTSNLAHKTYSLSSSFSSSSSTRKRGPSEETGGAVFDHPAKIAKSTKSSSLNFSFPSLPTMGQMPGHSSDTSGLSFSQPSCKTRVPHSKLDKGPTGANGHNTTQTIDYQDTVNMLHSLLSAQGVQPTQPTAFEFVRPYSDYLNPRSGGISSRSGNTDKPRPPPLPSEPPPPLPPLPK
CDK7/Cyclin H/MAT1, sequence (P50613 whole entry): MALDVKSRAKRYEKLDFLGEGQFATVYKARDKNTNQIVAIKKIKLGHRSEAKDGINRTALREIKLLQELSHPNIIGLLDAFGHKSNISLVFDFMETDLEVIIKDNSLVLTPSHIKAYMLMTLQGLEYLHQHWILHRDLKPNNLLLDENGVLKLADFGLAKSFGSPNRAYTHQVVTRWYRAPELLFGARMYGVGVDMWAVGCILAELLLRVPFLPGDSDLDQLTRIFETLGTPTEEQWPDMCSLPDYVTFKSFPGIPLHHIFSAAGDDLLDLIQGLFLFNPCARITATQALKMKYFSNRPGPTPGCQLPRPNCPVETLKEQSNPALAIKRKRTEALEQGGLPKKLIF
CDK7/Cyclin H/MAT1, sequence (P51946 whole entry partner): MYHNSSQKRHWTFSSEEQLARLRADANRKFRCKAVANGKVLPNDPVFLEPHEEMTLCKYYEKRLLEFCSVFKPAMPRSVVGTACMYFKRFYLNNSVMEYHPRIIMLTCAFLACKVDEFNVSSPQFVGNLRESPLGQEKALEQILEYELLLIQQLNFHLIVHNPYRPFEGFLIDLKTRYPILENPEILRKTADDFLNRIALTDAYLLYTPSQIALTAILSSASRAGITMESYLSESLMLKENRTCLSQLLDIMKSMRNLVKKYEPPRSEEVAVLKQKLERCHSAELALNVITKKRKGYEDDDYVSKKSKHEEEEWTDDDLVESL
CDK7/Cyclin H/MAT1, sequence (P51948 whole entry partner): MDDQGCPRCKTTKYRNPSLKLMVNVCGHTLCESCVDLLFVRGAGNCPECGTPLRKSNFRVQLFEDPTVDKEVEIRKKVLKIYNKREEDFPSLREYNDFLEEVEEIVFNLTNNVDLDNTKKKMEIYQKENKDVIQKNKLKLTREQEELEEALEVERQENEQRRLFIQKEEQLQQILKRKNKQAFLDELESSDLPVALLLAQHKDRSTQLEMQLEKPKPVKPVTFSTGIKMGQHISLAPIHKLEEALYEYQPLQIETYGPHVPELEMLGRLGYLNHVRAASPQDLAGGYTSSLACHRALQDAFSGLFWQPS

Row | Compound | IC50 (CDK7/Cyclin H/MAT1) | Ki (CDK2/Cyclin E1) | Ki (CDK9/Cyclin T1) | Ki (CDK12/Cyclin K) | Selectivity (CDK2 Ki/CDK7 KD) (CDK2/Cyclin E1) | Selectivity (CDK9 Ki/CDK7 KD) (CDK9/Cyclin T1) | Selectivity (CDK12 Ki/CDK7 KD) (CDK12/Cyclin K) | IC50 [1] | IC50 [2] | AUC0~inf [3, 4] | CL [3, 4] | T1/2 [3, 4] | Vss [3, 4] | AUC0~inf ([3]; oral administration 2 mg/kg) | Cmax ([3]; oral administration 2 mg/kg) | F(%) ([3]; oral administration 2 mg/kg) | T1/2 ([3]; oral administration 2 mg/kg)
1 | O=C1NCCOCCN2CC[C@@H](C2)Nc2ncc(C(F)(F)F)c(n2)-c2c[nH]c3cc1ccc23 [Compound Z1, (4^3S)-2^5-(trifluoromethyl)-1^1H-7-oxa-3,10-diaza-1(3,6)-indola-2(4,2)-pyrimidina-4(3,1)-pyrrolidinacycloundecaphan-11-one] | 11 nM | 154 nM | 52.2 nM | 62.6 nM |  |  |  |  |  |  |  |  |  |  |  |  | 
2 | CP(C)(=O)c1c2ccc3c(c[nH]c13)-c1nc(ncc1C(F)(F)F)N[C@H]1CC[C@@H](C1)NCCCCNC2=O [Compound Z5] |  | 25.6 nM | 95.5 nM | 26.1 nM | (CDK2 Ki/CDK7 KD): 160 | (CDK9 Ki/CDK7 KD): 597 | (CDK12 Ki/CDK7 KD): 163 | 42.7 nM |  |  |  |  |  |  |  |  | 
3 | CP(C)(=O)c1c2ccc3c(c[nH]c13)-c1nc(ncc1C(F)(F)F)N[C@H]1CC[C@@H](C1)NCCOCCNC2=O [Compound Z7, (4^1S,4^3S)-1^7-(dimethylphosphoryl)-2^5-(trifluoromethyl)-1H-8-oxa-3,5,11-triaza-1(3,6)-indola-2(4,2)-pyrimidina-4(1,3)-cyclopentanacyclododecaphan-12-one] |  | 33.4 nM | 217 nM | 61.4 nM | (CDK2 Ki/CDK7 KD): 566 | (CDK9 Ki/CDK7 KD): 3675 | (CDK12 Ki/CDK7 KD): 61.35 | 41.1 nM |  |  |  |  |  |  |  |  | 
4 | CN1CC(F)(F)CCN(C)[C@H]2CC[C@@H](C2)Nc2ncc(C(F)(F)F)c(n2)-c2c[nH]c3c(P(C)(C)=O)c(ccc23)C1=O [Compound Z65, (4^1S,43S)-1^7-(dimethylphosphoryl)-8,8-difluoro-5,10-dimethyl-2^5-(trifluoromethyl)-1^1H-3,5,10-triaza-1(3,6)-indola-2(4,2)-pyrimidina-4(1,3)-cyclopentanacycloundecaphan-11-one] |  |  | 258 nM |  |  |  |  | 46.9 nM | 254 nM | 3097 ng·h/mL | 1.23 mL/min/kg | 3.42 h | 0.24 L/kg | 45620 ng·h/mL | 6623 ng/mL | 147% | 4.44 h
5 | CN1C[C@@H](F)CCN(C)[C@H]2CC[C@@H](C2)Nc2ncc(C(F)(F)F)c(n2)-c2c[nH]c3c(P(C)(C)=O)c(ccc23)C1=O [Compound Z79, (4^1S,4^3S,8S)-1^7-(dimethylphosphoryl)-8-fluoro-5,10-dimethyl-2^5-(trifluoromethyl)-1^1H-3,5,10-triaza-1(3,6)-indola-2(4,2)-pyrimidina-4(1,3)-cyclopentanacycloundecaphan-11-one] |  | 23.3 nM | 134 nM | 92.8 nM | (CDK2 Ki/CDK7 KD): 192 | (CDK9 Ki/CDK7 KD): 1103 | (CDK12 Ki/CDK7 KD): 763 | 66.5 nM | 84 nM |  |  |  |  |  |  |  | 
6 | (4^1S, 4^3S)-2^5-(trifluoromethyl)-1^1H-3,5,10-triaza-1(3,6)-indola-2(4,2)-pyrimidina-4(1,3)-cyclopentanacycloundecaphan-11-one [Compound Z2] | 4.58 nM | 9.8 nM | 10.6 nM | 22.7 nM | (CDK2 Ki/CDK7 KD): 70 | (CDK9 Ki/CDK7 KD): 76 | (CDK12 Ki/CDK7 KD): 162 | 207 nM |  |  |  |  |  |  |  |  | 
